From ChEMBL document CHEMBL1124434, “2H-[1]benzopyrano[3,4-b]pyridines: synthesis and activity at central monoamine receptors” (J Med Chem, 1989)

Assays:
[1] = molecular target: 5-hydroxytryptamine receptor 1B (Rattus norvegicus) (UniProt P28564); assay: (§1) Concentration necessary to achieve half maximal inhibition of [125I]- Iodocyanopindolol binding to 5-hydroxytryptamine 1B receptor at 1 uM
[2] = molecular target: T1, Serotonin 2 (5-HT2) receptor (Rattus norvegicus) (UniProt P30994+P08909+P14842); assay: (§2) Concentration necessary to achieve half maximal inhibition of [3H]ketanserin binding to 5-hydroxytryptamine 2 receptor at 1 uM; assay type: protein assay
[3] = molecular target: T2, Dopamine receptor (Bos taurus) (UniProt Q95136+P20288); assay: (§3) Concentration necessary to achieve half maximal inhibition of [3H]spiperone binding dopamine receptor at 1 uM; assay type: protein assay
[4] = molecular target: T2, Dopamine receptor (Bos taurus); assay: (§4) Concentration necessary to achieve half maximal inhibition of [3H](+)-[…]-6,7-dihydroxy-1,2,3,4-tetrahydronaphthalene binding to dopamine receptor at 1 uM; assay type: protein assay
[5] = molecular target: T3, 5-hydroxytryptamine receptor 1A (Rattus norvegicus, UniProt P19327); assay: (§5) Concentration necessary to achieve half maximal inhibition of [3H]8-Hydroxy-2-(di-n-propylamino)tetralin binding to 5-hydroxytryptamine 1A receptor at 1 uM
T3 sequence (P19327 whole entry): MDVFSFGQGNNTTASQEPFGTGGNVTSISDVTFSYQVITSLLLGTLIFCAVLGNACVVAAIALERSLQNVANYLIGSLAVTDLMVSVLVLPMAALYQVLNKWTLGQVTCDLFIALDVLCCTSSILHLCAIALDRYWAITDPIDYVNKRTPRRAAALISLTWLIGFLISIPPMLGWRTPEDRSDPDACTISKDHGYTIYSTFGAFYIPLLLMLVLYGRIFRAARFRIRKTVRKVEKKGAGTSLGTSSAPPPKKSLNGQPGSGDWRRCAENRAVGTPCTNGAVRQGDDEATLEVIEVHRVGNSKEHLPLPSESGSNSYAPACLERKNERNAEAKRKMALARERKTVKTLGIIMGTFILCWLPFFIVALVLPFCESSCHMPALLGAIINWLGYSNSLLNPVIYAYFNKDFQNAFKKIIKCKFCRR

[6] = molecular target: T4, Alpha-2A adrenergic receptor (Bos taurus, UniProt Q28838); assay: Concentration necessary to achieve half maximal inhibition of [3H]clonidine binding to alpha-2 adrenergic receptor at 1 uM
T4 sequence (Q28838 whole entry): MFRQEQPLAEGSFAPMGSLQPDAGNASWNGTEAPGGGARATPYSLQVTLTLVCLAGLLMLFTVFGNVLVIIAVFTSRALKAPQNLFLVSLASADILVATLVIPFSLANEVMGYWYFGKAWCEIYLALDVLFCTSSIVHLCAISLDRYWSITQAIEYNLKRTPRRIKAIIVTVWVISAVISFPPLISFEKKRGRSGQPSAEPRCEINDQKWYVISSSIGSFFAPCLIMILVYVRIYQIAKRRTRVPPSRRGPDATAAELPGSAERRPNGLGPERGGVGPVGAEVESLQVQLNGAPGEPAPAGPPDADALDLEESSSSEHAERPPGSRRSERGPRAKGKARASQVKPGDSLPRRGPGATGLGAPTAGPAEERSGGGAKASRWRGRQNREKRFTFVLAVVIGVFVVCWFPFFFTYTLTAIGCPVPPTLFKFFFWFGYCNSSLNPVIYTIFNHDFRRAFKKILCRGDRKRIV

[7] = molecular target: T5, Dopamine receptor (Bos taurus, UniProt Q95136+P20288); assay: as §4; assay type: protein assay
[8] = molecular target: T5, Dopamine receptor; assay: as §3; assay type: protein assay
[9] = molecular target: T6, Serotonin 2 (5-HT2) receptor (Rattus norvegicus, UniProt P30994+P08909+P14842); assay: Concentration necessary to achieve half maximal inhibition of [3H]-ketanserin binding to 5-hydroxytryptamine 2 receptor; assay type: protein assay
[10] = molecular target: T6, Serotonin 2 (5-HT2) receptor; assay: (§6) Concentration necessary to achieve half maximal inhibition of [3H]ketanserin, binds to 5-hydroxytryptamine 2 receptor at 1 uM; assay type: protein assay
[11] = molecular target: T7, 5-hydroxytryptamine receptor 1A (Rattus norvegicus) (UniProt P19327); assay: as §5
T7 sequence (whole entry): T3 sequence (P19327 whole entry)

[12] = molecular target: T8, Alpha-2A adrenergic receptor (Bos taurus) (UniProt Q28838); assay: Concentration necessary to achieve half maximal inhibition of [3H]clonidine binding to alpha-2 adrenergic receptorat 1 uM
T8 sequence (whole entry): T4 sequence (Q28838 whole entry)

[13] = molecular target: T6, Serotonin 2 (5-HT2) receptor; assay: as §2; assay type: protein assay
[14] = molecular target: T9, 5-hydroxytryptamine receptor 1B (Rattus norvegicus, UniProt P28564); assay: as §1
[15] = molecular target: T1, Serotonin 2 (5-HT2) receptor (Rattus norvegicus); assay: as §6; assay type: protein assay
[16] = molecular target: T9, 5-hydroxytryptamine receptor 1B; assay: Concentration necessary to achieve half maximal inhibition of [125I]- Iodocyanopindolol, binds to 5-hydroxytryptamine 1B receptor at 1 uM
[17] = molecular target: T4, Alpha-2A adrenergic receptor
Description: Concentration necessary to achieve half maximal inhibition of [3H]clonidine binding to Alpha-2 adrenergic receptor at 1 uM

5-hydroxytryptamine receptor 1B (Rattus norvegicus), sequence (P28564 whole entry): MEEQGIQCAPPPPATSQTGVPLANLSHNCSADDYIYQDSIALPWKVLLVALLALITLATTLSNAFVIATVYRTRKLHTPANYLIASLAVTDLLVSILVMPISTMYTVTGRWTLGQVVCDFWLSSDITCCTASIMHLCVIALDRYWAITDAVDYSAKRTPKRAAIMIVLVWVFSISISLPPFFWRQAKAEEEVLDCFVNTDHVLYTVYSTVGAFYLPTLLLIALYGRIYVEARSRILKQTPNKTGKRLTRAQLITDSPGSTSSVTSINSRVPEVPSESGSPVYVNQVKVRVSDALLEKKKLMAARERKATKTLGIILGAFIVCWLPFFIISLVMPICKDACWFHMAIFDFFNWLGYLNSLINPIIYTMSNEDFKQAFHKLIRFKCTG
T9 sequence (P28564 whole entry): as above
T1 sequence (P08909 whole entry, looked up): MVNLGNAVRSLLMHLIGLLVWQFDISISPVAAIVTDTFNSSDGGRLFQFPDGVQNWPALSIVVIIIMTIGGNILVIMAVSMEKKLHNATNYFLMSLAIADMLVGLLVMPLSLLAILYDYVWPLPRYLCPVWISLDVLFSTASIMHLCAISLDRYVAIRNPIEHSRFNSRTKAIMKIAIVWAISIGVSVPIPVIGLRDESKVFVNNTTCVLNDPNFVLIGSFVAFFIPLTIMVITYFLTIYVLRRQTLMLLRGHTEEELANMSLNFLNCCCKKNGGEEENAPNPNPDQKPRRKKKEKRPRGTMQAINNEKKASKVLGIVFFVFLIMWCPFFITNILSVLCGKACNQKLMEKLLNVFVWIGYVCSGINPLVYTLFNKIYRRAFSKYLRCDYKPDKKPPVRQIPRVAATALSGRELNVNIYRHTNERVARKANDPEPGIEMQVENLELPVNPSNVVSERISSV
T1 sequence (P14842 whole entry, looked up): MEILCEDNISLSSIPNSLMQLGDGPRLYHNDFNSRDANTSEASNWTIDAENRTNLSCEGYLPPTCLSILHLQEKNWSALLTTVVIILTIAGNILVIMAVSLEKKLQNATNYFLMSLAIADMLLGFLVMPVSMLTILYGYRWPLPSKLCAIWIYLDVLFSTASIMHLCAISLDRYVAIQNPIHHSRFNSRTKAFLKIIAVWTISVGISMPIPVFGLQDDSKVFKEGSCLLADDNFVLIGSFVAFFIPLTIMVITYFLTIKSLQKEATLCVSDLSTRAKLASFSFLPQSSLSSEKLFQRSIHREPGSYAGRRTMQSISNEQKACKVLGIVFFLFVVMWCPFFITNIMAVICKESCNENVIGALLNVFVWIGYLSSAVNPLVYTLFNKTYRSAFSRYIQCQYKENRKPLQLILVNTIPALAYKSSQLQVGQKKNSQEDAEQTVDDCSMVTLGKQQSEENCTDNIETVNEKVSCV
T1 sequence (P30994 whole entry, looked up): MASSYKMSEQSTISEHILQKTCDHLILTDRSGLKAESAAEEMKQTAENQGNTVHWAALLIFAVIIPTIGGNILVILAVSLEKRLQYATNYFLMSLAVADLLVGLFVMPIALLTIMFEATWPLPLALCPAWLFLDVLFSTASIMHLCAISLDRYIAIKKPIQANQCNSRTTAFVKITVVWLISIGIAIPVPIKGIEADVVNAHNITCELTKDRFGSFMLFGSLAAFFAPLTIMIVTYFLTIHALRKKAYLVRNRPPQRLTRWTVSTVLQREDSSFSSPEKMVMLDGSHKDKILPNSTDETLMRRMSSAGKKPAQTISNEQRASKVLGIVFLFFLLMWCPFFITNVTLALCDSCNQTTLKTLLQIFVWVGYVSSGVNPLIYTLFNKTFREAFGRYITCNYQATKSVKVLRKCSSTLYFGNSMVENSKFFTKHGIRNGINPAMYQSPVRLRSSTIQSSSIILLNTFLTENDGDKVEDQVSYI

CCCN1CCC=C2c3ccccc3OCC21 (stereo unspecified)
Change [1]: -11% | Change [2]: -22% | Change [3]: -13% | Change [4]: -15% | IC50 [5]: 74 nM | IC50 [6]: 208 nM

Cc1ccc(O)c2c1[C@H]1CCCN(C)[C@@H]1CO2
Change [1]: -10% | IC50 [7]: 26 nM | IC50 [8]: 170 nM | IC50 [9]: 97 nM | IC50 [5]: 76 nM | IC50 [6]: 1020 nM

CCCN1CCC[C@@H]2c3ccccc3OC[C@H]21
Change [1]: -10% | IC50 [10]: 178 nM | Change [3]: -19% | Change [4]: -24% | IC50 [5]: 219 nM | IC50 [6]: 88 nM

CN1CCC[C@@H]2c3cc(O)ccc3OC[C@H]21
Change [1]: 6% | IC50 [7]: 114 nM | Change [2]: -27% | IC50 [8]: 4080 nM | Change [11]: -13% | Change [12]: -64%

CN1CCC=C2c3cc(O)ccc3OCC21 (stereo unspecified)
Change [1]: -6% | IC50 [7]: 20 nM | Change [2]: -32% | inhibition [3]: 3% | Change [11]: -42%

COc1cc(C)cc2c1[C@H]1CCCN(C)[C@@H]1CO2
IC50 [13]: 42 nM | Change [3]: -39% | Change [4]: -11% | IC50 [14]: 825 nM | IC50 [5]: 75 nM | IC50 [6]: 946 nM

CCCN1CCC[C@@H]2c3c(O)cccc3OC[C@H]21
Change [1]: -4% | IC50 [13]: 384 nM | Change [3]: -23% | Change [4]: -12% | IC50 [5]: 4 nM | IC50 [6]: 362 nM

CN(C)CCCSc1ccccc1NC(=O)/C=C/c1ccccc1 [CINANSERIN]
IC50 [13]: 2 nM

CN1CCC[C@@H]2c3cccc(O)c3OC[C@H]21
Change [1]: -2% | IC50 [7]: 11 nM | IC50 [13]: 1260 nM | Change [3]: -46% | Change [11]: -45% | Change [12]: -41%

CCCN1CCC[C@@H]2c3c(OC)cc(C)cc3OC[C@H]21
Change [1]: -31% | IC50 [10]: 86 nM | Change [3]: -36% | Change [4]: -15% | IC50 [5]: 186 nM | IC50 [6]: 504 nM

COc1cccc2c1OC[C@@H]1[C@@H]2CCCN1C
inhibition [1]: 7% | IC50 [13]: 920 nM | Change [3]: -22% | Change [4]: -23% | IC50 [5]: 253 nM | Change [12]: -24%

CCCN1CCC[C@@H]2c3cc(O)ccc3OC[C@H]21
Change [1]: -1% | IC50 [7]: 9 nM | Change [2]: -30% | IC50 [8]: 1260 nM | IC50 [5]: 1210 nM | IC50 [6]: 559 nM

CCCN1CCC=C2c3cccc(O)c3OCC21 (stereo unspecified)
Change [1]: -1% | Change [2]: -14% | Change [3]: -17% | Change [4]: -10% | Change [11]: -36% | Change [12]: -34%

CCCN1CCC[C@@H]2c3cccc(O)c3OC[C@H]21
Change [1]: -2% | IC50 [7]: 30 nM | IC50 [13]: 1100 nM | IC50 [8]: 260 nM | IC50 [5]: 1000 nM | IC50 [6]: 77 nM

CCCCN1CCC[C@@H]2c3cccc(O)c3OC[C@H]21
Change [1]: 0% | IC50 [7]: 8 nM | IC50 [8]: 260 nM | IC50 [5]: 1200 nM | IC50 [6]: 39 nM | Change [15]: -40%

CCCN1CCC[C@@H]2c3ccc(O)cc3OC[C@H]21
Change [1]: -1% | IC50 [7]: 16 nM | Change [2]: -14% | IC50 [8]: 4830 nM | IC50 [6]: 249 nM | Change [11]: -17%

CCCN1CCC=C2c3c(OC)cccc3OCC21 (stereo unspecified)
IC50 [16]: 1320 nM | IC50 [10]: 839 nM | Change [3]: -36% | Change [4]: -13% | IC50 [5]: 1.8 nM | IC50 [6]: 151 nM

FC(F)(F)c1cccc(N2CCNCC2)c1
IC50 [14]: 51 nM

CCCN1CCC[C@@H]2c3c(OC)cccc3OC[C@H]21
Change [1]: -19% | IC50 [13]: 114 nM | Change [3]: -53% | Change [4]: -9% | IC50 [5]: 9 nM | IC50 [6]: 71 nM

COc1ccc(C)c2c1OC[C@@H]1[C@@H]2CCCN1C
Change [1]: -35% | Change [2]: -44% | Change [3]: -15% | Change [4]: -6% | IC50 [5]: 19 nM | Change [12]: -12%

CCCN1CCC=C2c3cc(O)ccc3OCC21 (stereo unspecified)
Change [1]: 0% | IC50 [7]: 51 nM | Change [2]: -14% | IC50 [8]: 4190 nM | IC50 [5]: 244 nM | IC50 [6]: 634 nM

Clc1cccc(Cl)c1N=C1NCCN1 [CLONIDINE]
IC50 [17]: 2 nM
